This is an account of results in the NIST ThermoML archive (doi:10.1016/j.jct.2014.07.013).

Numbers after ± are expanded uncertainties.

For the data set the following is noted: Liquid, Closed cell (Static) method.

On to `CCC` [propane], for which the vapor or sublimation pressure (as a rule, the equilibrium pressure above the liquid or solid) by setting is: (258.15 K) 291.6 ± 1.1 kPa; (263.15 K) 345.3 ± 1.1 kPa; (273.15 K) 474.5 ± 1.2 kPa; (283.15 K) 636.8 ± 1.4 kPa.

Turning to `FC(F)(F)I` [trifluoroiodomethane], the “vapor or sublimation pressure” value runs as follows: (258.15 K) 133 ± 1 kPa; (263.15 K) 160.4 ± 1 kPa; (273.15 K) 228.4 ± 1.1 kPa; (283.15 K) 316.5 ± 1.1 kPa.
